Active and inactive are the calls of the source. For most assays here, no stated cut-off is given here; in the data, actives have a measured EC50 and inactives only a lower limit.
Experiments:
[1] = viability of uninfected HEp-2 cells – cell-based, HTS, cytotoxicity control for RSV inhibitor project, dose response (AID 2410); format: functional; conditions: human respiratory syncytial virus
[2] = biological target: T1, Heat shock factor protein 1 (Mus musculus, UniProt P38532); assay: decrease of HSF1-responsive luciferase luminescence – cell-based, NIH3T3, dose retest, confirmation (AID 2382); format: functional;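 further: NIH3T3 fibroblasts with HSF1-driven luciferase reporter stressed by proteasome inhibitor MG132; luminescence from HSF1-driven luciferase expression after 8 hours of MG132 stress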
T1 sequence (P38532 whole entry): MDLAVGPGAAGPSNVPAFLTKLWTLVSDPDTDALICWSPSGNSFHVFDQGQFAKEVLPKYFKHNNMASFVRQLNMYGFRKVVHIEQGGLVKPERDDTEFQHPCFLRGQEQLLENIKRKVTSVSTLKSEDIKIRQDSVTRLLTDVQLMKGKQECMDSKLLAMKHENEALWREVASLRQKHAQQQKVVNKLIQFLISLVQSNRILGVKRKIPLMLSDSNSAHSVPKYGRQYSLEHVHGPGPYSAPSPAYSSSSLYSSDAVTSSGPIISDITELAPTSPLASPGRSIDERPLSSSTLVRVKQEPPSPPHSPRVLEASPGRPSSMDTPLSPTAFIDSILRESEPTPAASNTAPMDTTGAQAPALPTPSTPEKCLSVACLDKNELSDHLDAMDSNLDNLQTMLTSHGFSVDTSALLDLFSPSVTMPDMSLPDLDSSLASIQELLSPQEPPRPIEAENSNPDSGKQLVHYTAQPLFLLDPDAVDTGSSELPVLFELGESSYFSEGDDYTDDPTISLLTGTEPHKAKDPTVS

[3] = Trypanosoma cruzi growth suppression in host cells – NIH3T3 host cells, beta-gal luminescence, confirmation (AID 2044); format: functional, cell-based;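 further: intracellular parasites grown in NIH/3T3 mouse fibroblasts as host cells; luminescent beta-galactosidase reporter signal from transgenic T. cruzi replicating inside host cells; inhibitors lower the luminescence signal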
[4] = microbe, parasite or virus in culture; format: functional; conditions: Mycobacterium tuberculosis
[5] = NIH3T3 cell viability loss – ATP luminescence, mouse fibroblasts, counter-screen, dose response (AID 2010); format: functional, cell-based;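 further: cells exposed to compound for about 90 hours before reading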
[6] = luciferase reporter signal suppression in cells – H4 neuroglioma cells, luminescence, dose response (AID 1990); format: functional, cell-based
[7] = Luminescence Cell-Based Dose Response HTS to Identify Inhibitors of 5'UTR Stem-Loop Driven Prion Protein mRNA Translation in H4 Neuroglioblastoma Cells. [Related pubchem assays: 1827 (Project Summary), 1813 (Primary HTS)]; format: functional
[8] = alpha-synuclein stem-loop luciferase translation blockers – H4 neuroglioma cells, luminescence, confirmation (AID 1988); format: functional, cell-based
[9] = NIH-3T3 fibroblast cytotoxicity, dose response, cytotoxicity control, cell-based, fluorescence, Alamar Blue, secondary assay (AID 2327); format: functional;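 further: NIH-3T3 mouse fibroblasts cultured with fluconazole at 8 µg/mL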
[10] = biological target: FAD-linked sulfhydryl oxidase ALR (Homo sapiens, UniProt P55789); assay: ALR-catalysed DTT oxidation blockers – biochemical, H2O2 detection, luminescence, cherry-pick, dose response (AID 493248)
FAD-linked sulfhydryl oxidase ALR, sequence (P55789 whole entry): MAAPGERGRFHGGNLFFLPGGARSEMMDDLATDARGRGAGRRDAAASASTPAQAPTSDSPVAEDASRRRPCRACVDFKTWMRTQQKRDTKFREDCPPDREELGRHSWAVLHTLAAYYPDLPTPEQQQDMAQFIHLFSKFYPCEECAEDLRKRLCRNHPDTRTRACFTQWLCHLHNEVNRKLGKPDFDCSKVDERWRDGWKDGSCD

[11] = Luminescence Cell-Based Dose Confirmation HTS to Identify Activators of 5'UTR Stem-Loop Driven Alpha-Synuclein mRNA Translation in H4 Neuroglioblastoma Cells. [Related pubchem assays: 1829 (Project Summary), 1814 (Primary HTS)]; format: functional
[12] = Luminescence Cell-Based Dose Response HTS to Identify Activators of Luciferase Translation or Activity in H4 […] Cells. [Related pubchem assays: 1829 (Project Summary), 1814 (Primary HTS)]; format: functional
[13] = test system: Streptococcus sp. 'group A'; assay: Streptococcus pyogenes SK(-)GAS viability under kanamycin – luminescence, BacTiterGlo, confirmation, counter-screen for streptokinase expression inhibitor project, dose response (AID 1900); format: functional, organism-based
H4 = assay: Luminescence Cell-Based Dose Response HTS to Identify Activators of 5'UTR Stem-Loop Driven Prion Protein mRNA Translation in H4 Neuroglioblastoma Cells. [Related pubchem assays: 1829 (Project Summary), 1814 (Primary HTS)]; format: functional; conditions: Homo sapiens
Streptokinase A = biological target: T2, Streptokinase A (Streptococcus pyogenes serotype M1, UniProt P10520); assay: viability-normalized secreted streptokinase activity reduction – plasminogen activation absorbance, OD405, dose response (AID 1914); format: functional, Streptococcus pyogenes M1 GAS;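 further: secreted streptokinase activity via plasminogen activation per viability signal from cell pellet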
T2 sequence (P10520 whole entry): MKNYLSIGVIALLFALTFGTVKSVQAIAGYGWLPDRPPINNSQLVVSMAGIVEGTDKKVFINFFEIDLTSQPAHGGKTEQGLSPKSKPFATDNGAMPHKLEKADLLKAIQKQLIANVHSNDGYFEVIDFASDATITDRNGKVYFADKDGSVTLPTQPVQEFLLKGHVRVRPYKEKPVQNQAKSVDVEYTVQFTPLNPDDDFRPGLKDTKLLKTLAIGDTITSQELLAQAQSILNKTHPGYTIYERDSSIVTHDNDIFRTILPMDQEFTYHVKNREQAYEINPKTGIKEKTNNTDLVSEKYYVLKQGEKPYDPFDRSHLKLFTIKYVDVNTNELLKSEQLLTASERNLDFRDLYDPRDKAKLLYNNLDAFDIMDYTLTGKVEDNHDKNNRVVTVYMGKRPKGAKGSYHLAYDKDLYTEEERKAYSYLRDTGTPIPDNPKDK

Streptococcus = assay: GAS UMAA2166 growth inhibition – luminescence, BacTiterGlo, counter-screen for streptokinase expression inhibitor project, dose response (AID 1915); format: functional, organism-based;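 further: potency for reduction of bacterial viability or growth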
[14] = biological target: T3, Corticotropin-releasing factor receptor 2/Corticotropin-releasing factor-binding protein (Homo sapiens, UniProt P24387+Q13324); assay: activators of CRF receptor 2 with binding protein – uHTS hits, confirmation (AID 602473); format: functional; conditions: read-out: EC50_Mean
T3 sequence (Q13324 whole entry): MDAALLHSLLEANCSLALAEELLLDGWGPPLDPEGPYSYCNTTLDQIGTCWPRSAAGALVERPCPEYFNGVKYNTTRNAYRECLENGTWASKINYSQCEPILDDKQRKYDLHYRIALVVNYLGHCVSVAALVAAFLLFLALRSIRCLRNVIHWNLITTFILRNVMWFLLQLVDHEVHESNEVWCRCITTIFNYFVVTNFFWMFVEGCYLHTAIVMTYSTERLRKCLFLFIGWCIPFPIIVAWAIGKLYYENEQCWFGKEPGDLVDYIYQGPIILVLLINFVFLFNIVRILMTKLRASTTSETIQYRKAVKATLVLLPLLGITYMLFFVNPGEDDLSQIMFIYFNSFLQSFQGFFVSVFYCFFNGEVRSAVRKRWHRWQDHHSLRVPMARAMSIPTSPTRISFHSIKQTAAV
T3 sequence (P24387 whole entry): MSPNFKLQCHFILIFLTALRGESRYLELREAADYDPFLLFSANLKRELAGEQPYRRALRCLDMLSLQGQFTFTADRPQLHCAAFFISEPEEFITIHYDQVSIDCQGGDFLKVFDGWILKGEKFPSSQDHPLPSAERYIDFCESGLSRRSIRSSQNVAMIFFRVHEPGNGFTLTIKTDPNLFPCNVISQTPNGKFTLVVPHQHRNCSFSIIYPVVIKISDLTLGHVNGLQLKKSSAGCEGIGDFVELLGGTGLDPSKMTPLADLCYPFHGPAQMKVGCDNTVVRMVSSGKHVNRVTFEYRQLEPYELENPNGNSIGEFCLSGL

## C#CCN1C(C)=C(C(=O)OC)C(c2cccc([N+](=O)[O-])c2)C(C(=O)OCC)=C1C (stereo not given)
[1]
  CC50: 24.8 µM (active)

## OC(COc1c(F)cc(Br)cc1F)CN1CCN(c2ccc(F)cc2)CC1 (stereo not given)
[2]
  EC50: > 195 µM (not active)

## CCCCn1cc(S(=O)(=O)c2ccccc2)c(=O)c2cc(C)ccc21
[2]
  EC50: > 195 µM (not active)

## COc1cccc(N/C([S-])=C(/C(=O)c2cc(C)n(-c3ccccc3F)c2C)[n+]2ccc(N(C)C)cc2)c1
[3]
  EC50: 0.645 µM (active)
[4]
  CC50: > 40 µM (active)
[5]
  EC50: > 60 µM (not active)

## COc1nc(-c2ccccc2)cc(-c2ccc3c(c2)OCO3)c1C#N
[6]
  EC50: 11.2 µM (inconclusive)
[7]
  EC50: 27.6 µM (active)
[8]
  EC50: 3.63 µM (active)

## CSc1c(CC(=O)Nc2ccccc2)n(C)c2ccccc12
[6]
  EC50: > 120 µM (not active)
[7]
  EC50: > 120 µM (not active)
[8]
  EC50: 0.344 µM (inconclusive)

## Nc1n[nH]c(-c2cccc([N+](=O)[O-])c2)n1
[9]
  EC50: > 150 µM (inactive)

## CCOC(=O)Cc1csc(NC(=O)c2ccc(S(=O)(=O)N3CCCCC3)cc2)n1
[1]
  CC50: 11.5 µM (active)

## CCOc1cc(-c2c(C#N)c(O)nc3c2c(C)nn3-c2ccc(F)cc2)ccc1O
[4]
  CC50: > 40 µM (active)

## COc1cccc(N2CCN(CC(=O)c3c[nH]c4ccc(OC)cc34)CC2C)c1 (stereo not given)
[1]
  CC50: 38.1 µM (active)

## O=C(c1ccccc1Cl)N1N=C(c2ccc(Br)cc2)CC1c1nc2ccccc2[nH]1 (stereo not given)
[1]
  CC50: 14.3 µM (active)

## Cc1c(Cl)ccc2c(C(=O)NC(C)c3ccncc3)cc(-c3ccncc3)nc12 (stereo not given)
[1]
  CC50: 25.1 µM (active)

## CCOC(=O)C1CCCN(Cc2cc(=O)oc3cc(C)c(C(C)C)cc23)C1 (stereo not given)
[1]
  CC50: 31.3 µM (active)

## COc1ccc(OC)c(NC(=O)CSCC(=O)O)c1
[2]
  EC50: > 195 µM (not active)

## CCN(CC)C(=S)SCC(=O)Nc1nc(=O)c2ccccc2s1
[2]
  EC50: > 195 µM (not active)

## Cn1c(NCC(O)c2ccccc2)nc2c1c(=O)n(Cc1ccc(Cl)c(Cl)c1)c(=O)n2C (stereo not given)
[4]
  CC50: 25.5 µM (active)

## CSCCC1NC(=O)N(CC(=O)N2N=C(c3ccc(Cl)cc3)CC2c2ccco2)C1=O (stereo not given)
[4]
  CC50: > 40 µM (active)

## COc1ccc(NC(C)C(=O)Nc2ccc(C(C)(C)C)cc2)cc1Cl (stereo not given)
[4]
  CC50: > 40 µM (active)

## CC(=O)O[C@H]1CC[C@@]2(C)[C@@H](CC[C@@H]3[C@@H]2CC[C@]2(C)[C@@H](C(C)(C)O)C[C@@H]32)C1
[1]
  CC50: 36.9 µM (active)

## CCC(=O)c1ccc(OCC(O)CN2CCN(c3cccc(C(F)(F)F)c3)CC2)cc1 (stereo not given)
[4]
  CC50: > 40 µM (active)

## OCCCNc1nc(-c2ccc(Cl)cc2)nc2ccccc12
[1]
  CC50: > 50 µM (active)

## Cc1ccc(N(CC(=O)NCCSc2nc3ccccc3s2)S(=O)(=O)c2ccccc2)c(C)c1
[6]
  EC50: > 120 µM (not active)
[7]
  EC50: > 120 µM (not active)
[8]
  EC50: 14.8 µM (active)

## COc1cc(CN(C2CCCCC2C)S(=O)(=O)c2ccc(S(=O)(=O)NC3CC3)cc2)cc(OC)c1OC (stereo not given)
[6]
  EC50: 103 µM (active)
[7]
  EC50: > 120 µM (not active)
[8]
  EC50: > 120 µM (not active)

## Cc1[nH]c2ccc(C(=O)OC(C)C(=O)NC3CCCCC3C)cc2c1C (stereo not given)
[1]
  CC50: 12.1 µM (active)

## CCOC(=O)C1(C)NC(c2ccc(O)cc2)C2C(=O)N(c3ccccc3)C(=O)C21 (stereo not given)
[2]
  EC50: 93.8 µM (active)

## O=C(NCc1ccncc1)C(=O)Nc1nc(C23CC4CC(CC(C4)C2)C3)cs1
[2]
  EC50: > 195 µM (not active)

## Cc1ccc(NC(=NO)c2nonc2N)cc1
[10]
  AC50: 19.3 µM (active)

## Cn1c(-c2ccsc2)c(-c2cccs2)c2cc(-c3cccc4[nH]ccc34)ccc21
[1]
  CC50: 32.1 µM (active)

## COc1ccc2nc(-n3c(C)ccc3C)sc2c1
[11]
  EC50: 38 µM (active)
[12]
  EC50: 8.93 µM (active)
[13]
  EC50: > 150 µM (not active)
H4
  EC50: 60.8 µM (active)
Streptokinase A
  EC50: > 150 µM (not active)
Streptococcus
  EC50: > 150 µM (not active)

## CCCCc1c(C)nn(-c2nnc3c4ccccc4n(CC)c3n2)c1C
[1]
  CC50: 5.26 µM (active)
[13]
  EC50: 4.61 µM (active)
Streptokinase A
  EC50: > 150 µM (not active)
Streptococcus
  EC50: > 150 µM (not active)

## O=C(Nc1ccc(Oc2cccc(C(F)(F)F)c2)nc1)c1cccs1
[4]
  CC50: > 40 µM (active)

## Cc1ccccc1C1=Nc2c(c(=O)n(C)c(=O)n2C)C(C(F)(F)F)(C(F)(F)F)N1
[1]
  CC50: > 50 µM (active)

## COC(=O)c1cnc(Oc2ccc(NC(=O)NC(=O)c3c(OC)cccc3OC)cc2)cc1C(F)(F)F
[6]
  EC50: 0.293 µM (active)
[7]
  EC50: 0.142 µM (active)
[8]
  EC50: 0.111 µM (active)

## CN(c1ccccc1C(=O)N1CCN(c2ccccc2)CC1)S(C)(=O)=O
[10]
  AC50: 2.93 µM (active)

## COc1ccccc1C(CNC(=O)C(C)(C)Oc1ccc(Cl)cc1)N1CCCC1 (stereo not given)
[4]
  CC50: > 40 µM (active)

## O=C(COC(=O)C1(c2ccccc2F)CCCC1)N1CCc2ccccc21
[2]
  EC50: > 195 µM (not active)

## O=C(Nc1cccc(-c2cn3c(n2)SCC3)c1)c1ccc(Br)o1
[9]
  EC50: > 150 µM (inconclusive)

## CCOc1cc(-c2cc(-c3ccc(C)cc3)nc(N)c2C#N)ccc1O
[6]
  EC50: 14.7 µM (active)
[7]
  EC50: > 120 µM (not active)
[8]
  EC50: 10.7 µM (active)

## CN(C)c1ccc(N=Nc2ccc(C(=O)O)cc2)cc1
[7]
  EC50: 11.8 µM (active)
[2]
  EC50: 1.68 µM (active)

## O=C(c1ccccc1)c1cccn1CC(=O)N1CCN(c2ccccc2)CC1
[10]
  AC50: 12.4 µM (active)

## COCC1CCN(Cc2nc(-c3ccc4c(c3)OCO4)no2)C1 (stereo not given)
[11]
  EC50: 10.1 µM (active)
[12]
  EC50: 13.1 µM (active)
H4
  EC50: 45 µM (active)
[14]
  EC50: > 53 µM (inactive)

## Cc1ccc(/C=N\NC(=O)Cc2noc3ccccc23)cc1
[2]
  EC50: > 195 µM (not active)

## CCC(=O)N(C)CCc1cc2c(c(OC)c1/C=N/Nc1ccc(C(=O)O)cc1)OCO2
[10]
  AC50: 3.56 µM (active)

## C/C(=N\NC(=O)c1nnn(-c2nonc2N)c1C(C)C)c1ccncc1
[2]
  EC50: > 195 µM (not active)

From ChEMBL document CHEMBL1201862, “PubChem BioAssay data set” (2004)
